{"source": "patent US20070077283A1", "about": "“METHOD OF ENHANCING TRANSMUCOSAL DELIVERY OF THERAPEUTIC COMPOUNDS” (Nastech Pharmaceutical Company Inc., priority 2005, published 2007)", "key": {"[1]": {"system": "human-derived tracheal/bronchial epithelial cells (EpiAirway Tissue Model)", "assay": "FITC-Dextran permeation assay across epithelial cell monolayer", "assay_type": "cell-based", "conditions": "for Mean % FD3 Permeation: FITC-dextran 3000 (Table 4)", "experimental": "Each tissue insert was placed in an individual well containing 1 ml of MatTek basal media. On the apical surface of the inserts, 20 μl of test formulation was applied according to study design, and the samples were placed on a shaker (˜100 rpm) for 1.5 hours at 37° C. FITC-labeled dextran solution was added to inserts apically and a fluorescence measurement was taken from the basolateral media after the incubation period. Two hundred microliters of the basal media for each test formulation was transferred to a dark-wall fluorescent reading plate. Each test formulation was tested in triplicate. Fluorescent intensity was measured at 470 nM with the microplate fluorescence reader FLx800 (Bio-Tek Instruments, Inc., Winooski, Vt.). A FITC labeled dextran with a molecular weight of 3 kDA, 10 kDA, 20 kDA, 40 kDA, 70 kDA and/or 500 kDA was used to assess the ability of individual lipids to deliver a model protein across an epithelia.\n(§1) Permeation is expressed as percent permeation and was calculated as follows: [formula] [formula] Terms\nPBS and 0.3% Triton-X100™ served as […]. […] FD permeation was presented as the percent of FD that crossed from the apical side of the epithelial cell monolayer to the basolateral cell surface."}, "[2]": {"system": "human-derived tracheal/bronchial epithelial cells (EpiAirway Tissue Model)", "assay": "Transepithelial electrical resistance (TER) of an epithelial cell monolayer", "assay_type": "cell-based", "experimental": "Inserts are feed for each day of recovery. TER measurements were accomplished using the Endohm-12 Tissue Resistance Measurement Chamber connected to the EVOM Epithelial Voltohmmeter (World Precision Instruments, Sarasota, Fla.) with the electrode leads. The electrodes and a tissue culture blank insert were equilibrated for at least 20 minutes in MatTek medium with the power off prior to checking calibration. The background resistance was measured with 1.5 ml media in the Endohm tissue chamber and 300 μl media in the blank insert. The top electrode was adjusted so that it was close to, but not making contact with, the top surface of the insert membrane. Background resistance of the blank insert was about 5-20 ohms. […] TER values are a function of the surface area of the tissue. […] By this method of calculation, TER will be expressed as both Ohms*cm2 and percent original TER value. […] Several different lipid types (see Table 1) were screened to select for lipids that are capable of enhancing the permeation of a biological agent across an epithelial cell monolayer. […] A reduction in TER correlates with the ability to enhance the permeation of a molecule and biological agent across an epithelia."}, "[3]": {"system": "human-derived tracheal/bronchial epithelial cells (EpiAirway Tissue Model)", "assay": "in vitro", "experimental": "Normal, human-derived tracheal/bronchial epithelial cells will serve as the model cell system for assessing the lipids listed in Table 1. The cells are supplied by MatTek Corp. (Ashland, Mass.) as the EpiAirway™ Tissue Model. The cells are provided as a confluent monolayer on a Millipore Milicell-CM cell culture insert with a pore size of 0.4 μM, inner diameter of 0.8 cm and surface area of 0.6 cm^2 and comprised of transparent hydrophilic Teflon (PTFE). Upon receipt, the membranes are cultured in 1 ml basal media (phenol red-free and hydrocortisone-free Dulbecco's Modified Eagle's Media (DMEM) at 37° C./5% CO2 for 24-48 hours before use. Inserts are feed for each day of recovery.\nThe amount of cell death was assayed by measuring the loss of lactate dehydrogenase (LDH) from the cells using a CytoTox 96 Cytotoxicity Assay Kit (Promega Corp., Madison, Wis.). A treatment of 1% Octylphenolpoly(ethyleneglycolether)x (Triton X-100™) diluted in PBS was used as a lysis control. One percent Triton X-100™ mediated cell lysis was normalized to 100%. For basal-lateral LDH levels, triplicates of 50 μl of the basal media were loaded into a 96-well assay plate. For apical LDH levels, 150 μl of Epi-Cm was added to the apical side of each chamber and mixed by pipeting. One hundred and fifty microliters was then removed and diluted 2-fold prior to performing the LDH assay. All apical LDH assay were performed in triplicate and with 50 μl of the diluted test solution. Fresh, cell-free culture medium will be used as a blank. Total LDH levels were determined by lysing cells in a final concentration of 0.9% Triton-X100™. Fifty microliters of substrate solution was added to each well and the plates incubated for 30 minutes at room temperature in the dark. Following incubation, 50 μl of stop solution was added to each well and the plates read on an optical density plate reader at […]. Cytotoxicity was expressed as a percentage calculated by subtracting the average absorbance of the PBS control wells as the endogenously released LDH level and expressing that value relative to the average Triton-X100 control, which represents total LDH content. [formula] Osmolality\nFor the instant application, phosphate buffered saline (PBS) served as a negative control for both the TER assay and LDH (cytotoxicity) assay. […] TER measurements and LDH levels were taken immediately after a one hour treatment of the cultured cells with each lipid, unless specified otherwrise.\nTER reduction was expressed as the percent decrease in TER value from time zero to one hour post-treatment. Thus, greater percent reduction in TER represents less electrical resistance across the epithelial cell monolayer and consequently greater epithelial cell permeation. Cytotoxicity (LDH levels) for each lipid was expressed as a percent of the LDH levels measured after Triton-X100 treatment of the cells. Triton-X100™ LDH levels were normalized to 100%."}, "[4]": {"system": "human-derived tracheal/bronchial epithelial cells (EpiAirway Tissue Model)", "assay": "Peptide YY (PYY) permeation across epithelial cell monolayer", "assay_type": "cell-based", "experimental": "as §1\nIn the instant example, the ability of permeation enhancing lipids to enhance the permeation of the biological agent, peptide YY (PYY; molecular weight of 3.7 kDa) across the epithelial cell monolayer model system (EpiAirway™) was measured. Also, the efficacy of a permeation enhancing lipid to enhance the permeation of insulin across and epithelial cell layer was measured. Refer to Example 2 of the instant application for general protocol details."}, "[5]": {"system": "ciliary function in epithelial cell cultures", "conditions": "Hingley et al. 1986; cited from earlier work"}, "[6]": {"system": "human-derived tracheal/bronchial epithelial cells (EpiAirway Tissue Model)", "assay": "TER recovery / TER time course", "assay_type": "cell-based", "conditions": "lipids 500 μM, PN159 25 μM", "experimental": "TER recovery was calculated as described in the above paragraph.\nReversibility is a critical factor in selecting epithelial cell permeabiling enhancers since the barrier function of the epithelial cells serves as the first line of defense against pathogens and the entrance of toxins into the body. The permeation enhancing lipids C16 PAF; C18 PAF; C16 Enantiomeric PAF; POVPC; C16-04: 1 PC and PGPC were incubated with a monolayer of human-derived tracheal/bronchial epithelial cells (EpiAirway™ Model System) and TER […] The lipid glucosyl sphingosine was also tested. Each permeation enhancing lipid (except PGPC) was applied at a concentration of 1000 μM for 15, 30 and 60 minutes. The permeation enhancing lipid PGPC and the lipid glucosyl sphingosine were applied at a concentration of 500 μM for 1, 3, 5, 30 and 60 minutes. TER measurements were taken immediately after each application to determine how quickly each lipid could reduce TER.\n[…] […] PBS served as a negative control and Triton-X100™ served as a positive control.\nTo asses how quickly the cells recovered after application and removal of the permeation enhancing lipid PGPC and the lipid glucosyl sphingosine, TER measurements were taken at 1, 3, 5, 7, and 9 hours post-treamtnet for each of the prior mentioned timed treatments (i.e., 1, 3, 5, 15, 30 and 60 minutes). TER recovery measures the reversibility of the lipid mediated effect on an epithelia. […] Hyptonic PBS served as a negative control for TER reduction and TER recovery."}, "[7]": {"system": "human-derived tracheal/bronchial epithelial cells (EpiAirway Tissue Model)", "assay": "Cell viability (MTT assay)", "assay_type": "cell-based", "experimental": "Cell viability will be assessed using the MTT assay (MTT-100, MatTek kit). This kit measures the uptake and transformation of tetrazolium salt to formazan dye. Thawed and diluted MTT concentrate is prepared 1 hour prior to the end of the dosing period with the lipid by mixing 2 mL of MTT concentrate with 8 mL of MTT diluent. Each cell culture insert is washed twice with PBS containing Ca^+2 and Mg^+2 and then transferred to a new 96-well transport plate containing 100 μL of the mixed MTT solution per well. This 96-well transport plate is then incubated for three hours at 37° C. and 5% CO2. After the three hour incubation, the MTT solution is removed and the cultures are transferred to a second 96-well feeder tray containing 250 μL MTT extractant solution per well. An additional 150 μL of MTT extractan solution was added to the surface of each culture well and the samples sat at room temperature in the dark for a minimum of two hours and maximum of 24 hours. The insert membrane was then pierced with a pipet tip and the solutions in the upper and lower wells were allowed to mix. Two hundred microliters of the mixed extracted solution along with extracted blanks (negative control) was transferred to a 96-well plate for measurement with a microplate reader. The optical density (OD) of the samples was measured at 570 nm with the background subtraction at 650 nm on a plate reader. Cell viability was expressed as a percentage and calculated by dividing the OD readings for treated inserts by the OD readings for the PBS treated inserts and multiplying by 100. For the purposes of this assay, it was assumed that PBS had no effect on cell viability and therefore represented 100% cell viability."}, "[8]": {"conditions": "lipid / PYY 10 mg/mL, listed as PAF-antangonist"}, "[9]": {"conditions": "lipid 500 μM / PYY 13.67 mg/mL (High)"}}}
{"compound": "CCCCCCCCCCCCCCCCOC[C@H](COP(=O)([O-])OCCCCCC[N+](C)(C)C)OC(C)=O", "note": "[PAF-antagonist, 1-O-Hexadecyl-2-O-Acetyl-sn-Glycero-3-Phospho(N,N,N-trimethyl) Hexanolamine]", "values": [{"measurement": "Mean % FD3 Permeation", "setting": "[1]; lipid 500 μM", "result": 6, "unit": "%"}, {"measurement": "% FITC-Dextran Permeation FD10", "setting": "[1]; lipid 1000 μM", "result": 5, "unit": "%"}, {"measurement": "% FITC-Dextran Permeation FD40", "setting": "[1]; lipid 1000 μM", "result": 2, "unit": "%"}, {"measurement": "% FITC-Dextran Permeation FD3", "setting": "[1]; lipid 1000 μM (Table 5)", "result": 11, "unit": "%"}, {"measurement": "Mean % FD3 Permeation", "setting": "[1]; lipid 1000 μM", "result": 11, "unit": "%"}, {"measurement": "permeation of FD3 relative to negative controls", "setting": "[1]; text summary of Table 4", "result": "enhanced the permeation of FD3 above that of the negative controls"}, {"measurement": "Mean % of Original TER Value", "setting": "[2]; lipid 500 μM (Table 4)", "result": 20, "unit": "%"}, {"measurement": "Mean % of Original TER Value", "setting": "[2]; lipid 1000 μM, lower value = greater TER reduction (Table 4)", "result": 9, "unit": "%"}, {"measurement": "% Original TER", "setting": "[2]; lipid / PYY 10 mg/mL", "result": "reduced TER below that of the positive control PN159 and equivalent to the positive control Special Sauce"}, {"measurement": "% Original TER", "setting": "[2]; [8]", "result": 2, "unit": "%"}, {"measurement": "Mean % Relative Cytotoxic Effect (LDH)", "setting": "[3]; lipid 500 μM (Table 4)", "result": 8, "unit": "%"}, {"measurement": "Mean % Relative Cytotoxic Effect (LDH)", "setting": "[3]; lipid 1000 μM (Table 4)", "result": 10, "unit": "%"}, {"measurement": "% PYY Permeation", "setting": "[4]; lipid / PYY 10 mg/mL", "result": "enhanced permeation of PYY equivalent to or above the positive control PN159"}, {"measurement": "% PYY Permeation", "setting": "[4]; [8]", "result": 2.4, "unit": "%"}]}
{"compound": "rhamnolipid", "values": [{"measurement": "effect of limited exposure of tracheal explants", "setting": "[5]", "result": "ciliostasis"}]}
{"compound": "2-alkyl-4-hydroxyquinolines [pyo compound]", "values": [{"measurement": "concentration producing ciliostasis / inhibiting ciliary motility", "setting": "[5]", "result": 50, "unit": "µg/mL"}]}
{"compound": "CCCCCCCCCCCCC/C=C/[C@@H](O)[C@@H](N)CO[C@@H]1O[C@H](CO)[C@@H](O)[C@H](O)[C@H]1O", "note": "[Glucosyl-sphingosine, D-Glucosyl-β1-1′-D-erythro-Sphingosine]", "values": [{"measurement": "time to full TER recovery (PBS control levels)", "setting": "[6]; after 1, 3, 5, 15 and 30 minute treatments", "result": "fully recovered within one hour"}, {"measurement": "time to full TER recovery (PBS control levels)", "setting": "[6]; after 60 minute treatment", "result": "did not reach PBS TER control levels until three hours post-treatment"}, {"measurement": "% FITC-Dextran Permeation FD3", "setting": "[1]; lipid 500 μM (Table 5)", "result": 4, "unit": "%"}, {"measurement": "% Original TER", "setting": "[2]; lipid 500 μM / PYY 13.67 mg/mL (High), listed as Glucosyl Sphingosine", "result": 12, "unit": "%"}, {"measurement": "% Original TER", "setting": "[2]; lipid 500 μM / PYY 13.67 mg/mL (High), listed as glucosyl sphingosine", "result": "reduced TER to levels equivalent of PN159"}, {"measurement": "MTT levels (cell viability)", "setting": "[7]; compared with PBS negative control (Example 5)", "result": "MTT levels comparable to that of the PBS negative control"}, {"measurement": "% Cell Viability", "setting": "[7]; [9]", "result": 109, "unit": "%"}, {"measurement": "% PYY Permeation", "setting": "[4]; [9]", "result": 1.17, "unit": "%"}]}
